Assay results taken from US20090240045A1, “Organic Compounds” (Novartis AG, priority 2006, published 2009).
Where a name gives a salt, the structure may show the parent alone.

Target: adenosine A2A receptor (Homo sapiens, UniProt P29274)
Experiment: Adenosine A2A receptor agonist assay (method of Murphree et al.)
Type: binding
Settings: method described by Murphree et al., Mol Pharmacol, Vol. 61, pp. 455-462 (2002)
From the text: Compounds of formula (I) and their pharmaceutically acceptable salts are useful as pharmaceuticals. In particular, they activate the adenosine A2A receptor, i.e., they act as A2A receptor agonists.

Chain of adenosine A2A receptor (P29274 whole entry): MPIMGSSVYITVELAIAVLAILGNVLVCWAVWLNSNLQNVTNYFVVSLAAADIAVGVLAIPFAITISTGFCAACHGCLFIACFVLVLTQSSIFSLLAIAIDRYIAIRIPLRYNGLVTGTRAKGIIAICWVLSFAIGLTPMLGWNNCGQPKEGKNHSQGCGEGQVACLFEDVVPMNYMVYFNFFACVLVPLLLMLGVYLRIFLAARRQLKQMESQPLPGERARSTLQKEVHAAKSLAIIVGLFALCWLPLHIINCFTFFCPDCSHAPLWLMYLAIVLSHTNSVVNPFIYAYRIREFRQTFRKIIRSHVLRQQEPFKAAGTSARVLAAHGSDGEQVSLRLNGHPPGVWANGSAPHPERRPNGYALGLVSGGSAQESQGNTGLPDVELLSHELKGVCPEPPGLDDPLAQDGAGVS

Structure (SMILES) | Ki
O=C(N[C@@H]1CCNC1)N[C@@H]1CCN(c2nc(NCC(c3ccccc3)c3ccccc3)c3ncn([C@@H]4O[C@H](CO)[C@@H](O)[C@H]4O)c3n2)C1 [Example 11, 1-{(R)-1-[9-(2R,3R,4S,5R)-3,4-Dihydroxy-5-hydroxymethyl-tetrahydro-furan-2-yl)-6-(2,2-diphenyl-ethylamino)-9H-purin-2-yl]-pyrrolidin-3-yl}-3-(R)-pyrrolidin-3-yl-urea trifluoroacetate] | 12 nM
CCn1nnc([C@H]2O[C@@H](n3cnc4c(NCC(c5ccc(O)cc5)c5ccc(O)cc5)nc(N5CC[C@@H](NC(=O)c6ccc(N7CCOCC7)nc6)C5)nc43)[C@H](O)[C@@H]2O)n1 [Example 77, N-((R)-1-{6-[2,2-bis-(4-Hydroxy-phenyl)-ethylamino]-9-[(2R,3R,4S,5R)-5-(2-ethyl-2H-tetrazol-5-yl)-3,4-dihydroxy-tetrahydro-furan-2-yl]-9H-purin-2-yl}-pyrrolidin-3-yl)-6-morpholin-4-yl-nicotinamide trifluoroacetate] | 6 nM
